Common to all, as to experiment: Large panel kinase profiling
Holding throughout (assay type): biochemical
What all share (conditions): 1 μM test article, 1 mM ATP

In one test the target is T1, EIF2AK2/PKR (Homo sapiens, UniProt P19525).
T1 construct: AssayQuant Technologies, Inc. (service laboratory)
The method in brief:
(§1)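 Kinase activity was followed with the PhosphoSens CSox-Sensor platform, testing compound at 1 μM in the presence of 1 mM ATP. Reactions ran at 30° C. and fluorescence (Ex 360 nm/Em 485 nm) was read kinetically every 1 min.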

The target of a further test is T2, FLT3 (Homo sapiens, UniProt P36888).
T2 construct: AssayQuant Technologies, Inc. (service provider)
T2 sequence (P36888 27-993): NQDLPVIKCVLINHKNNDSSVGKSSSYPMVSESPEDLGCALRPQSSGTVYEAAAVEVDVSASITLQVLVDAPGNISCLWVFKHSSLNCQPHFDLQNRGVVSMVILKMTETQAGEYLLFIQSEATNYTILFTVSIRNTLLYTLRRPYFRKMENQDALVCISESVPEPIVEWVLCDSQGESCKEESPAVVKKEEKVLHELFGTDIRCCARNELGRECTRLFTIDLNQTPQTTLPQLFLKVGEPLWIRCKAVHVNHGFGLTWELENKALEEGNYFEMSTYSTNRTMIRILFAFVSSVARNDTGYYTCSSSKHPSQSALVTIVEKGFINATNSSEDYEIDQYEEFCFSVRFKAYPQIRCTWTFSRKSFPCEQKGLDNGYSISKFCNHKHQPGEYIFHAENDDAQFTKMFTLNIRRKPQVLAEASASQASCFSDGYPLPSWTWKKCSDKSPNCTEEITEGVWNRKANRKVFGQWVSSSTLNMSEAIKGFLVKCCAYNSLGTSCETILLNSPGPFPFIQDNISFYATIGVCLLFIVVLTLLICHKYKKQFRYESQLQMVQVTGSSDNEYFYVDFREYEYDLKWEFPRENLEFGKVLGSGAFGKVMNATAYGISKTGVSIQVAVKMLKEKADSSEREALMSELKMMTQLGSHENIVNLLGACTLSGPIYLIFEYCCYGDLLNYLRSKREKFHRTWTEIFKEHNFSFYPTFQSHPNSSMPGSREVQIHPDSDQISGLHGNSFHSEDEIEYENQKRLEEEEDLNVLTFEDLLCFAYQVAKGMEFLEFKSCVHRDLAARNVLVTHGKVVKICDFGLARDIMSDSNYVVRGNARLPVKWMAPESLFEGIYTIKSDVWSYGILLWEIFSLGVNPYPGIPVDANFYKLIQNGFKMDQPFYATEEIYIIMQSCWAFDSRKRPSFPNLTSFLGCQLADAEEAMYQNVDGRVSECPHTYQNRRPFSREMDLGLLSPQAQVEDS
The method in brief: as §1

The target in a further test is T3, JAK3(JH1) (Homo sapiens, UniProt P52333).
T3 construct: JAK3(JH1)
The method in brief: as §1

The next test has as its target T4, SRC (Homo sapiens, UniProt P12931).
T4 construct: AssayQuant Technologies, Inc. (contract assay)
The method in brief:
as §1

A further test deals with FGFR1 (Homo sapiens, UniProt P11362). The method in brief: as §1
The next test addresses ERBB2/HER2 (Homo sapiens, UniProt P04626). The method in brief: as §1
The target in another test is T5, PRKG1 (Homo sapiens, UniProt Q13976).
T5 sequence (Q13976 1-671): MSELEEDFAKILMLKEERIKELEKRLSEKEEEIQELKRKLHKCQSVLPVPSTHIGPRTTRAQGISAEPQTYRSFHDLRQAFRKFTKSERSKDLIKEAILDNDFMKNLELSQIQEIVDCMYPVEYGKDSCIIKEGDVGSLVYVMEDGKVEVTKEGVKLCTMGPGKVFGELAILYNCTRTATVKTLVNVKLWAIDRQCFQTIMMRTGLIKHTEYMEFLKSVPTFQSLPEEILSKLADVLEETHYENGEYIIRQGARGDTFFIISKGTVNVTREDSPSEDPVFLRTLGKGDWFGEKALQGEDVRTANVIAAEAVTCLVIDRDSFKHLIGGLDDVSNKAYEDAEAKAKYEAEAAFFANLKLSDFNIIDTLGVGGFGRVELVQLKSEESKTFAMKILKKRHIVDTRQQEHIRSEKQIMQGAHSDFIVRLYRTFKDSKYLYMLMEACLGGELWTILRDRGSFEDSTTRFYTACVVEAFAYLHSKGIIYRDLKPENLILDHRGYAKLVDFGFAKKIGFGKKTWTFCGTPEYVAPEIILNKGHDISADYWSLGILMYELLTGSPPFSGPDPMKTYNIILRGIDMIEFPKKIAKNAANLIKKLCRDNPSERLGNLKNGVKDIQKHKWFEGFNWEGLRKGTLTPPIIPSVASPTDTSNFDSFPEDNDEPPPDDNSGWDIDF
The method in brief: as §1

The source of these data is US20220009920A1 (GB005, Inc., priority 2020, published 2022).

What is called inhibition is the relative decrease from the control value, in per cent.

T4 sequence (P12931 whole entry, species assumed): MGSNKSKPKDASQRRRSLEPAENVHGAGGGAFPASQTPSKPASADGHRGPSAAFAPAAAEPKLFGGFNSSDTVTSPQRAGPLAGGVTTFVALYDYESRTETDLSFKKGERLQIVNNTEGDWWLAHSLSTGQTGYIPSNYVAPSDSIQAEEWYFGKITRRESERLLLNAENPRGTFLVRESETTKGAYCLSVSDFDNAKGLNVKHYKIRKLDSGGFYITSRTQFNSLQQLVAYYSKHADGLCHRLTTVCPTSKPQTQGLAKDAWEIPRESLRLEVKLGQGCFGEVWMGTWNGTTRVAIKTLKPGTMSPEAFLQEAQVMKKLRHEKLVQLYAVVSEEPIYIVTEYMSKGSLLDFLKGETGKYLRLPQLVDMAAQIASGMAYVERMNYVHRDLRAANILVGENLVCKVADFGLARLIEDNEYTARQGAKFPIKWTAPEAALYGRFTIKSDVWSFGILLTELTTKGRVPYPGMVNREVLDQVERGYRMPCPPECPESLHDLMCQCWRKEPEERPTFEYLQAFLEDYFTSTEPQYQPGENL
Sequence of ERBB2/HER2 (P04626 23-1255): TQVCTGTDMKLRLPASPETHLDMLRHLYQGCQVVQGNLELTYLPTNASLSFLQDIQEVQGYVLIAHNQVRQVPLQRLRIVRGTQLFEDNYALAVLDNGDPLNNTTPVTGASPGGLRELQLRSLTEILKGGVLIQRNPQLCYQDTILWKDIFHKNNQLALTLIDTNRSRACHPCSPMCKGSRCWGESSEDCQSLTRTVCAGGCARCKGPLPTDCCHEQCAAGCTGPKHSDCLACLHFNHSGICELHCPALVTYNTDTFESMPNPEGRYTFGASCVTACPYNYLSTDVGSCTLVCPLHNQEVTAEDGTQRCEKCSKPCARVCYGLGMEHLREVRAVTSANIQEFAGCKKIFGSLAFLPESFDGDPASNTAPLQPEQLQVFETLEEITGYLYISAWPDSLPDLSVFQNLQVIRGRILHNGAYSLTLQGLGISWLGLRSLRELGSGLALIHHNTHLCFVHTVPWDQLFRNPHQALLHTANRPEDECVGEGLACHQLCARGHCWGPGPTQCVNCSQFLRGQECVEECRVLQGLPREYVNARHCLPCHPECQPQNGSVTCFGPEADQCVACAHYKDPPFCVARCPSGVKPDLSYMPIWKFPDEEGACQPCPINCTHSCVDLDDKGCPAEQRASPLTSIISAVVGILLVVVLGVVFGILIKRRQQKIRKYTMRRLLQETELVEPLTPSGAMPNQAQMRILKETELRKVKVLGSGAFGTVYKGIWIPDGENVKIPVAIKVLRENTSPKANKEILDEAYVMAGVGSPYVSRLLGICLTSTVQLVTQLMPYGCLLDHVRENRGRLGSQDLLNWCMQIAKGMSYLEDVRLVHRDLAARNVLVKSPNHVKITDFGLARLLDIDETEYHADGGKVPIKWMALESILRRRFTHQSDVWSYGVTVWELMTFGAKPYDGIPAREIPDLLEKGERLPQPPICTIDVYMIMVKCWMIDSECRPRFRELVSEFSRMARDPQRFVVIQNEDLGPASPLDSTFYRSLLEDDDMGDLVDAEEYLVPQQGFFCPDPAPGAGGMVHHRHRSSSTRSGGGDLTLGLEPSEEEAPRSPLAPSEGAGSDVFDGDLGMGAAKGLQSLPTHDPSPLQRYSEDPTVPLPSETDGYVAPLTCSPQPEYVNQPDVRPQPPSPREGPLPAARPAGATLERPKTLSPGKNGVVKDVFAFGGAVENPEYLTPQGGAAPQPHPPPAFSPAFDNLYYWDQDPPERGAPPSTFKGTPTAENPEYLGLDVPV
Sequence of FGFR1 (P11362 22-822, species assumed): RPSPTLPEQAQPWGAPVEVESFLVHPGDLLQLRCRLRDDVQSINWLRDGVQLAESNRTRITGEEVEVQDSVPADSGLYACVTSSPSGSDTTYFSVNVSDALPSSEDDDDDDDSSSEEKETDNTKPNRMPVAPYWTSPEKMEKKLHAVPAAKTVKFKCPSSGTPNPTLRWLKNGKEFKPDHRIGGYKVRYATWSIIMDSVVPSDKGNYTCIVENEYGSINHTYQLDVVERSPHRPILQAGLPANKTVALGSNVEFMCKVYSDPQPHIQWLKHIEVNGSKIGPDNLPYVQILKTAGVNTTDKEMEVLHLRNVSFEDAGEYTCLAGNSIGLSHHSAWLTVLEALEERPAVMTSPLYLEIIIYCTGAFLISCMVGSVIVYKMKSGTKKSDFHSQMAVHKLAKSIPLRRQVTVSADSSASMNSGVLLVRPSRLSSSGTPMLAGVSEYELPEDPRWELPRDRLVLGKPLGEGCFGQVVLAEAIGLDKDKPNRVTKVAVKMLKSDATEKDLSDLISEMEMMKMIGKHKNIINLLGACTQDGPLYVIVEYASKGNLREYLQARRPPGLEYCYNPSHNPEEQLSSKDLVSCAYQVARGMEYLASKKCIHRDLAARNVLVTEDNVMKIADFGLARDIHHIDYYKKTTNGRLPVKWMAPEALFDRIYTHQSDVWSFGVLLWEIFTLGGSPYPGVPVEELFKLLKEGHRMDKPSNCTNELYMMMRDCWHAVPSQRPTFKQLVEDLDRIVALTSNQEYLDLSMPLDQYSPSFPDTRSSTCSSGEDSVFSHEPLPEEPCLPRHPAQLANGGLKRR
T1 sequence (P19525 whole entry): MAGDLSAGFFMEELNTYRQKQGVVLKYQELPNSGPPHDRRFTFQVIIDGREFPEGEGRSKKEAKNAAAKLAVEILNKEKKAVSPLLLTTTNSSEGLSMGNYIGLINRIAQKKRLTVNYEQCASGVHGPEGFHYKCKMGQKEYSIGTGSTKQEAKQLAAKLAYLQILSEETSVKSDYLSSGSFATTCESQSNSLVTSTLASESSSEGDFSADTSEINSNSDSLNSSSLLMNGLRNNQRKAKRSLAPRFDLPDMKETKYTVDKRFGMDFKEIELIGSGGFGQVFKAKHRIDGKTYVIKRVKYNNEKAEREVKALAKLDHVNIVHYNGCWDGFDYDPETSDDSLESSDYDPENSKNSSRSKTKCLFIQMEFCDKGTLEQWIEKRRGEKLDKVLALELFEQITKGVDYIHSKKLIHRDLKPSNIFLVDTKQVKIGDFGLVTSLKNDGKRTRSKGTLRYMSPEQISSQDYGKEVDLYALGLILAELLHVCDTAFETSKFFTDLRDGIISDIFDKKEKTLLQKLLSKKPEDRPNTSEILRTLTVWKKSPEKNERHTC
T3 sequence (P52333 822-1111 limits assumed, species assumed): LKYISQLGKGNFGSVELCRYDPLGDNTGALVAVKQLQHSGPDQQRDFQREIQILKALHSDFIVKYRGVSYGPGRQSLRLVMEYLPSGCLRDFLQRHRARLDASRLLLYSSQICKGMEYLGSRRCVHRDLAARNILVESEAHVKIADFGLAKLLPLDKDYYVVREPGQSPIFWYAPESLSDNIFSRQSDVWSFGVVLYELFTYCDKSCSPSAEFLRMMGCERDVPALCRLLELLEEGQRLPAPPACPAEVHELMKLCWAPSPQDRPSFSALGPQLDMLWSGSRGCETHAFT

Regarding `C=CC(=O)N1CCCC(c2c(F)cc(C(N)=O)c3[nH]c4c(c23)CCCCC4)C1` (single isomer, unassigned) [Compound 5-6], the inhibition at 1 µM against EIF2AK2/PKR was -28%; against FLT3, 2.2%; at JAK3(JH1), 2%; at SRC, -28.3%; against FGFR1, 18.4%; at ERBB2/HER2, -2.2%. In addition, at PRKG1, the inhibition at 1 µM was -2.8%.
Regarding `C=CC(=O)N1CCC[C@@H](c2c(F)cc(C(N)=O)c3[nH]c4c(c23)CC2(CC4)CC2)C1` [Compound 6-2, (S)-5-(1-acryloylpiperidin-3-yl)-6-fluoro-1,2,4,9-tetrahydrospiro[carbazole-3,1′-cyclopropane]-8-carboxamide], the inhibition at 1 µM against EIF2AK2/PKR is -1.6%; at FLT3 it was -9.4%; at JAK3(JH1), 12.5%; on SRC, -7%; on FGFR1, 6.6%; against ERBB2/HER2, 11.9%. In addition, at PRKG1, the inhibition at 1 µM was 0%.
As to `C=CC(=O)N1CCC[C@@H](c2c(F)cc(C(N)=O)c3[nH]c4c(c23)CCC4)C1` [Compound 10-2, (S)-8-(1-acryloylpiperidin-3-yl)-7-fluoro-1,2,3,4-tetrahydrocyclo-penta[b]indole-5-carboxamide], the inhibition at 1 µM at EIF2AK2/PKR was 65.5%; against FLT3, -4.6%; on JAK3(JH1), 2.4%; at SRC it was -1.8%; against FGFR1 it was 8.7%; against ERBB2/HER2 it was 14.5%. For the same molecule, at PRKG1, the inhibition at 1 µM is -5.8%.
